Reference: PubChem BioAssay AID192 (DTP/NCI, 2004)
Toxic doses and inconclusive results are not listed. Rule for the calls: active = survival T/C of 150% or more; inactive = T/C below 125% in these data.

Tested on: BDF1 mice, B16 melanoma ip, median survival T/C
Assay: NCI In Vivo Anticancer Drug Screen. Data for tumor model B16 Melanoma (intraperitoneal) in B6D2F1 (BDF1) mice
Settings: endpoint: median survival time, schedule: Q01DX009 (ip), higher = longer survival
Summary of the method: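 The ratio T/C compares compound-treated mice with vehicle-treated controls, using survival or tumor size as the endpoint in a transplantable tumor model.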

[1] = dose: 100.0 mg/kg/injection, vehicle: gum acacia
[2] = dose: 200.0 mg/kg/injection, vehicle: gum acacia
[3] = dose: 12.5 mg/kg/injection, vehicle: saline with Tween-80
[4] = dose: 25.0 mg/kg/injection, vehicle: saline with Tween-80
[5] = dose: 50.0 mg/kg/injection, vehicle: saline with Tween-80
[6] = dose: 100.0 mg/kg/injection, vehicle: saline with Tween-80
[7] = dose: 200.0 mg/kg/injection, vehicle: saline with Tween-80

Measured: T/C

CCc1ccc(NC(=O)Nc2ccccc2OC)cc1
inactive: [1] 105 % of control | [2] 98 % of control | dose: 400.0 mg/kg/injection, vehicle: gum acacia 101 % of control

O=C(Nc1nncs1)c1ccncc1
inactive: [3] 100 % of control | [4] 101 % of control | [5] 109 % of control | [6] 113 % of control | [7] 109 % of control

COc1c(C)c2c(c(O)c1C/C=C(\C)CCC(=O)O)C(=O)OC2
inactive: dose: 6.25 mg/kg/injection, vehicle: distilled water + Tween-80 96 % of control | dose: 12.5 mg/kg/injection, vehicle: distilled water + Tween-80 95 % of control | dose: 25.0 mg/kg/injection, vehicle: distilled water + Tween-80 107 % of control | dose: 50.0 mg/kg/injection, vehicle: distilled water + Tween-80 94 % of control | dose: 100.0 mg/kg/injection, vehicle: distilled water + Tween-80 104 % of control | dose: 200.0 mg/kg/injection, vehicle: distilled water + Tween-80 104 % of control

COc1ccc([Se][Se]c2ccc(OC)cc2NC(C)=O)c(NC(C)=O)c1
inactive: [5] 102 % of control | [6] 92 % of control | [7] 100 % of control

CC1CN(CCC#N)CC(C)O1 (configuration not stated)
inactive: dose: 100.0 mg/kg/injection, vehicle: saline 95 % of control | dose: 200.0 mg/kg/injection, vehicle: saline 95 % of control

Cc1cccc(NC(=O)Nc2ccc(Cl)cc2)c1C
inactive: [1] 112 % of control | [2] 107 % of control

Nc1nnc[se]1
inactive: dose: 3.13 mg/kg/injection, vehicle: saline with Tween-80 106 % of control | dose: 6.25 mg/kg/injection, vehicle: saline with Tween-80 97 % of control | [3] 102 % of control | [4] 115 % of control

CCCCC1CCCCCCc2[nH]c(/C=C3\N=C(c4ccc[nH]4)C=C3OC)cc21 (configuration not stated)
inactive: dose: 62.0 micrograms/kg/injection, vehicle: saline with Tween-80 106 % of control | dose: 125.0 micrograms/kg/injection, vehicle: saline with Tween-80 96 % of control | dose: 250.0 micrograms/kg/injection, vehicle: saline with Tween-80 92 % of control | dose: 500.0 micrograms/kg/injection, vehicle: saline with Tween-80 103 % of control

N#CCCc1ccccc1
inactive: dose: 3.13 mg/kg/injection, vehicle: saline 100 % of control | dose: 6.25 mg/kg/injection, vehicle: saline 97 % of control | dose: 12.5 mg/kg/injection, vehicle: saline 100 % of control
